# Test results reported in patent publication US9822103B2, “Inhibitors of lysine methyl transferase” (priority 2013, dated 2017).
# Target: recombinant EZH2-641F complex (EZH2 Y641F/EED/SUZ12/RbAp48/AEBP2) (Homo sapiens (Human), UniProt Q15910, Y641F)
# Test: EZH2 Histone Methyl Transferase Assay (scintillation proximity assay)
# Format: biochemical
# Conditions: 350 nM histone peptide substrate, 500 nM 3H-SAM, 3 hours room temperature
# Method: EZH2 Histone Methyl Transferase Assay
# The effectiveness of compounds of the present invention as inhibitors of histone methyl transferases can be readily tested by assays known to those skilled in the art. For example, in vitro histone methyl transferase assays may be conducted with a relevant purified histone methyl transferase and an appropriate synthetic substrate to determine the inhibitory activity of the compounds. Assays for inhibition of EZH2 by the instant compounds were performed in 384-well plates with reaction mixtures containing 350 nM of histone peptide substrate (ATKAAR-K(Me2)-SAPATGGVKKPHRYRPG-GK(Biotin), 500 nM S-[methyl-^3H]adenosyl-L-methionine (55-85 Ci/mmol), 50 mM Tris-HCl (pH 9.0), 50 mM NaCl, 1 mM dithiothreitol, Tween-20 at 0.01% and fatty-acid free bovine serum albumin at 0.01%, and recombinant EZH2-641F complex (EZH2 Y641F/EED/SUZ12/RbAp48/AEBP2) at 5 nM (>98% purity, BPS Bioscience) or 15 nM (50% purity, in-house). Reaction mixtures were incubated at room temperature for 3 hours, and the reactions were terminated by 0.005% poly-L-lysine solution in 20 mM Tris-HCl (pH 7.5) and 150 mM NaCl. Reaction products were captured by binding to strepavidin-conjugated imaging beads. Incorporation of radioactive methyl group into the histone peptide substrate was determined in Leadseeker (GE Healthcare) by means of scintillation proximity assay. Dose response curves were generated to determine the concentration required to inhibit 50% of methyl transferase activity (EC50). Compounds were dissolved at 10 mM in dimethylsulfoxide (DMSO) and evaluated at eleven concentrations. EC50 values were derived by non-linear regression analysis.
# recombinant EZH2-641F complex (EZH2 Y641F/EED/SUZ12/RbAp48/AEBP2), sequence (Q15910 whole entry Y641F): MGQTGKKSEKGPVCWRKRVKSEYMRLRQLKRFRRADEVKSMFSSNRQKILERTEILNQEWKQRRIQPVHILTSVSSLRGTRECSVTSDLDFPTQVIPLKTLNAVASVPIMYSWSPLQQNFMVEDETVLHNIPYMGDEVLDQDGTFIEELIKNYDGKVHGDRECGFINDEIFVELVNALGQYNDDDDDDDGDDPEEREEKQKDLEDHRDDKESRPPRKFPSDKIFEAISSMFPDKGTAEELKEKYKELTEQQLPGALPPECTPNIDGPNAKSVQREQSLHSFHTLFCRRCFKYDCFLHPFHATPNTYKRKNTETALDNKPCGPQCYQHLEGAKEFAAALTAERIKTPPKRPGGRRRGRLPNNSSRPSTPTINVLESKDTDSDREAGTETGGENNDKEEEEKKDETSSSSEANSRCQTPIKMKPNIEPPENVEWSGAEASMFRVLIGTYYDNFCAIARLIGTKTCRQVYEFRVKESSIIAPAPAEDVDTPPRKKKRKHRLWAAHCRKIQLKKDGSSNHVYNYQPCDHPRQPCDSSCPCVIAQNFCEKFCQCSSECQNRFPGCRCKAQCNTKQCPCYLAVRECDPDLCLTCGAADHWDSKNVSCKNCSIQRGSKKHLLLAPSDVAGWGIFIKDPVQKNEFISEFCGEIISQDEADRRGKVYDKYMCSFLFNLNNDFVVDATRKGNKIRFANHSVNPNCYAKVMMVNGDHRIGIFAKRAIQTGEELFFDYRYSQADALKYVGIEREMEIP
# recombinant EZH2-641F complex (EZH2 Y641F/EED/SUZ12/RbAp48/AEBP2), sequence (O75530 whole entry partner): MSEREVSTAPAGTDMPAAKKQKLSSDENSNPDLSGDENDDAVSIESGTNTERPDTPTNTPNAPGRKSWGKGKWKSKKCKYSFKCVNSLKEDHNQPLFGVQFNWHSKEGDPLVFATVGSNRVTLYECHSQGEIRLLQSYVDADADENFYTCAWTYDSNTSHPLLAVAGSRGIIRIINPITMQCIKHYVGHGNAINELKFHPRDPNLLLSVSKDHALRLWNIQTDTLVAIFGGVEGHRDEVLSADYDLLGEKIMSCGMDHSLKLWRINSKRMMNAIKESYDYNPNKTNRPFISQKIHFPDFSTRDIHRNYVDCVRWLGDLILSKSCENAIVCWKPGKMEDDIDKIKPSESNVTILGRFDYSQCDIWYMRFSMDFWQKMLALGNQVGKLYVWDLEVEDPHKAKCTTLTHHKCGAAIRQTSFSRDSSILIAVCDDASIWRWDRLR
# recombinant EZH2-641F complex (EZH2 Y641F/EED/SUZ12/RbAp48/AEBP2), sequence (Q15022 whole entry partner): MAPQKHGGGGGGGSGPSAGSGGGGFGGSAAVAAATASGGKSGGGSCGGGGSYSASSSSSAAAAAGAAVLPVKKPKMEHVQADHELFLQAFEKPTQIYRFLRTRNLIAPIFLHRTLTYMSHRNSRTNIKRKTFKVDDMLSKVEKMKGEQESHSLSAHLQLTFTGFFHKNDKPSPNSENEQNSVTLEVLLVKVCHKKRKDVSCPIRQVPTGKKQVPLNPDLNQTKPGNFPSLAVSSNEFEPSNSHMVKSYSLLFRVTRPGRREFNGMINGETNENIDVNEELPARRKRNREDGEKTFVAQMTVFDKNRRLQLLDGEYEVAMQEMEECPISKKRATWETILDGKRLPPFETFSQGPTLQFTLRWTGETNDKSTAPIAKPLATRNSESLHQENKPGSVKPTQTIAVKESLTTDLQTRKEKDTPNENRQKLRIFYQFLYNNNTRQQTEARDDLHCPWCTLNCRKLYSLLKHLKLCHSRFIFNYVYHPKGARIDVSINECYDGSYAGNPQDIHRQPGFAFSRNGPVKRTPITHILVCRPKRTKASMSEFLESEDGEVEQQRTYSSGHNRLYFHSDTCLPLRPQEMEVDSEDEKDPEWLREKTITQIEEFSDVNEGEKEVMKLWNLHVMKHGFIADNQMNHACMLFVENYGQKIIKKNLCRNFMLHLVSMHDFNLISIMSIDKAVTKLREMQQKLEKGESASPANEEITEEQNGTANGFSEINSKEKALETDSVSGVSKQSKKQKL
# recombinant EZH2-641F complex (EZH2 Y641F/EED/SUZ12/RbAp48/AEBP2), sequence (Q09028 whole entry partner): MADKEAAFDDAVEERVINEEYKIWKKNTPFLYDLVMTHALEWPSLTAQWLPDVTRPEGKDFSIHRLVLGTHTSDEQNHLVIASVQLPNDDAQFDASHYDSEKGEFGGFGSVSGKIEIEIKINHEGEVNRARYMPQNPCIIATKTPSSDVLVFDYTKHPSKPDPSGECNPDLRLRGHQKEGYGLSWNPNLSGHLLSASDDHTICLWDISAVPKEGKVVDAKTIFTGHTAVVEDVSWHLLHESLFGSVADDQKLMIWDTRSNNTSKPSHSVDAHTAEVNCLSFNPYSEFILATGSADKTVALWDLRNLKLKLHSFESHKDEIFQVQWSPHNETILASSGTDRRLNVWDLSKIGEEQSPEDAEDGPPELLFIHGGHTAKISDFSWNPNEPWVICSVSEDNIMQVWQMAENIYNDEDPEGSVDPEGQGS
# recombinant EZH2-641F complex (EZH2 Y641F/EED/SUZ12/RbAp48/AEBP2), sequence (Q6ZN18 whole entry partner): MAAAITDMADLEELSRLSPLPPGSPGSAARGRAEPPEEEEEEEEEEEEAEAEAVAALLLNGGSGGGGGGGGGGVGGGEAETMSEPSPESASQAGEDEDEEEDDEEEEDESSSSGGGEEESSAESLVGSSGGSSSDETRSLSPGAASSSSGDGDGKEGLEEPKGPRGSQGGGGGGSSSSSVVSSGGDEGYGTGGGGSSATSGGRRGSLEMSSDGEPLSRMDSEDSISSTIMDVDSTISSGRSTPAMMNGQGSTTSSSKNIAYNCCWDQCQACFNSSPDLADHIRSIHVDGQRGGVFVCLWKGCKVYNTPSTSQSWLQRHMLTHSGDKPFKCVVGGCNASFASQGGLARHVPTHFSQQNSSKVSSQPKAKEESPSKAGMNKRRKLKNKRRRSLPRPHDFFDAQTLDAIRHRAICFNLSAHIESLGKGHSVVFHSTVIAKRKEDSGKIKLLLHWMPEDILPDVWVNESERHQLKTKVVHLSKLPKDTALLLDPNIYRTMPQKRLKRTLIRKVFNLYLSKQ
row,IC50 [nM],SMILES
1,> 1000,"Cc1cc(C)c(CNC(=O)c2cc3c(c(-c4ccc(C(=O)N5CCN(C)CC5)cc4)c2)OC(C)(C)C3)c(=O)[nH]1 [Example 16, N-((4,6-Dimethyl-2-oxo-1,2-dihydropyridin-3-yl)methyl)-2,2-dimethyl-7-(4-(4-methylpiperazine-1-carbonyl)phenyl)-2,3-dihydrobenzofuran-5-carboxamide]"
2,< 500,"Cc1cc(C)c(CNC(=O)c2cc3c(c(-c4cnc(N5CCN(C(=O)OC(C)(C)C)CC5)nc4)c2)OC(C)(C)C3)c(=O)[nH]1 [Example 17, t-Butyl 4-(5-(5-(((4,6-dimethyl-2-oxo-1,2-dihydropyridin-3-yl)methyl)carbamoyl)-2,2-dimethyl-2,3-dihydrobenzofuran-7-yl)pyrimidin-2-yl)piperazine-1-carboxylate]"
3,< 500,"Cc1cc(C)c(CNC(=O)c2cc3c(c(-c4ccc(N5CCNCC5)cc4)c2)OC(C)(C)C3)c(=O)[nH]1 [Example 18, N-((4,6-Dimethyl-2-oxo-1,2-dihydropyridin-3-yl)methyl)-2,2-dimethyl-7-(4-(piperazin-1-yl)phenyl)-2,3-dihydrobenzofuran-5-carboxamide]"
4,> 1000,"Cc1cc(C)c(CNC(=O)c2cc3c(c(-c4ccc(CN5CCCCC5)cc4)c2)OC(C)(C)C3)c(=O)[nH]1 [Example 19, N-((4,6-Dimethyl-2-oxo-1,2-dihydropyridin-3-yl)methyl)-2,2-dimethyl-7-(4-(piperidin-1-ylmethyl)phenyl)-2,3-dihydrobenzofuran-5-carboxamide]"
5,< 500,"Cc1cc(C)c(CNC(=O)c2cc3c(c(-c4cnc(N5CCNCC5)nc4)c2)OC(C)(C)C3)c(=O)[nH]1 [Example 20, N-((4,6-Dimethyl-2-oxo-1,2-dihydropyridin-3-yl)methyl)-2,2-dimethyl-7-(2-(piperazin-1-yl)pyrimidin-5-yl)-2,3-dihydrobenzofuran-5-carboxamide]"
6,> 1000,"Cc1cc(C)c(CNC(=O)c2cc(Cc3ccccc3)c3c(c2)CC(C)(C)O3)c(=O)[nH]1 [Example 21, 7-Benzyl-N-((4,6-dimethyl-2-oxo-1,2-dihydropyridin-3-yl)methyl)-2,2-dimethyl-2,3-dihydrobenzofuran-5-carboxamide]"
7,> 1000,"Cc1cc(C)c(CNC(=O)c2cc(C#N)c3c(c2)CC(C)(C)O3)c(=O)[nH]1 [Example 22, 7-Cyano-N-((4,6-dimethyl-2-oxo-1,2-dihydropyridin-3-yl)methyl)-2,2-dimethyl-2,3-dihydrobenzofuran-5-carboxamide]"
8,> 1000,"CCCc1cc(C)[nH]c(=O)c1CNC(=O)c1cc(Cl)c2c(c1)CC(C)(C)O2 [Example 23, 7-Chloro-2,2-dimethyl-N-((6-methyl-2-oxo-4-propyl-1,2-dihydropyridin-3-yl)methyl)-2,3-dihydrobenzofuran-5-carboxamide]"
9,> 1000,"CCCc1cc(C)[nH]c(=O)c1CNC(=O)c1cc(Br)c2c(c1)CC(C)(C)O2 [Example 24, 7-Bromo-2,2-dimethyl-N-((6-methyl-2-oxo-4-propyl-1,2-dihydropyridin-3-yl)methyl)-2,3-dihydrobenzofuran-5-carboxamide]"
10,500 to 1000,"COc1ccc(-c2cc(C(=O)NCc3c(C)cc(C)[nH]c3=O)c(C)c3c2OC(C)(C)C3)cn1 [Example 25, N-((4,6-Dimethyl-2-oxo-1,2-dihydropyridin-3-yl)methyl)-7-(6-methoxypyridin-3-yl)-2,2,4-trimethyl-2,3-dihydrobenzofuran-5-carboxamide]"
11,< 500,"Cc1cc(C)c(CNC(=O)c2cc(-c3ccc(N4CCNCC4)nc3)c3c(c2C)CC(C)(C)O3)c(=O)[nH]1 [Example 26, N-((4,6-Dimethyl-2-oxo-1,2-dihydropyridin-3-yl)methyl)-2,2,4-trimethyl-7-(6-(piperazin-1-yl)pyridin-3-yl)-2,3-dihydrobenzofuran-5-carboxamide]"
12,> 1000,"Cc1cc(C)c(CNC(=O)c2cc(-c3ccc(N4CCOCC4)nc3)c3c(c2)C(C)CO3)c(=O)[nH]1 (stereo not drawn) [Example 27, N-((4,6-Dimethyl-2-oxo-1,2-dihydropyridin-3-yl)methyl)-3-methyl-7-(6-morpholinopyridin-3-yl)-2,3-dihydrobenzofuran-5-carboxamide]"
13,> 1000,"Cc1cc(C)c(CNC(=O)c2cc(-c3ccc(CN4CCOCC4)cc3)c3c(c2)C(C)CO3)c(=O)[nH]1 (stereo not drawn) [Example 28, N-((4,6-Dimethyl-2-oxo-1,2-dihydropyridin-3-yl)methyl)-3-methyl-7-(4-(morpholinomethyl)phenyl)-2,3-dihydrobenzofuran-5-carboxamide]"
14,> 1000,"Cc1cc(C)c(CNC(=O)c2cc(-c3ccc(N4CCNCC4)nc3)c3c(c2)C(C)CO3)c(=O)[nH]1 (stereo not drawn) [Example 29, N-((4,6-Dimethyl-2-oxo-1,2-dihydropyridin-3-yl)methyl)-3-methyl-7-(6-(piperazin-1-yl)pyridin-3-yl)-2,3-dihydrobenzofuran-5-carboxamide]"
15,> 1000,"COc1ccc(-c2cc(C(=O)NCc3c(C)cc(C)[nH]c3=O)cc3c2OCC3C)cn1 (stereo not drawn) [Example 30, N-((4,6-Dimethyl-2-oxo-1,2-dihydropyridin-3-yl)methyl)-7-(6-methoxypyridin-3-yl)-3-methyl-2,3-dihydrobenzofuran-5-carboxamide]"
16,> 1000,"Cc1cc(C)c(CNC(=O)c2cc(Br)c3c(c2)CC(C)O3)c(=O)[nH]1 (stereo not drawn) [Example 31, 7-Bromo-N-((4,6-dimethyl-2-oxo-1,2-dihydropyridin-3-yl)methyl)-2-methyl-2,3-dihydrobenzofuran-5-carboxamide]"
17,> 1000,"COc1ccc(-c2cc(C(=O)NCc3c(C)cc(C)[nH]c3=O)cc3c2OC(C)C3)cn1 (stereo not drawn) [Example 32, N-((4,6-Dimethyl-2-oxo-1,2-dihydropyridin-3-yl)methyl)-7-(6-methoxypyridin-3-yl)-2-methyl-2,3-dihydrobenzofuran-5-carboxamide]"
18,> 1000,"Cc1cc(C)c(CNC(=O)c2cc3c(c(-c4ccc(N5CCOCC5)nc4)c2)OC(C)C3)c(=O)[nH]1 (stereo not drawn) [Example 33, N-((4,6-Dimethyl-2-oxo-1,2-dihydropyridin-3-yl)methyl)-2-methyl-7-(6-morpholinopyridin-3-yl)-2,3-dihydrobenzofuran-5-carboxamide]"
19,> 1000,"Cc1cc(C)c(CNC(=O)c2cc3c(c(-c4ccc(N5CCNCC5)nc4)c2)OC(C)C3)c(=O)[nH]1 (stereo not drawn) [Example 34, N-((4,6-Dimethyl-2-oxo-1,2-dihydropyridin-3-yl)methyl)-2-methyl-7-(6-(piperazin-1-yl)pyridin-3-yl)-2,3-dihydrobenzofuran-5-carboxamide]"
20,> 1000,"Cc1cc(C)c(CNC(=O)c2cc3c(c(-c4ccc(CN5CCOCC5)cc4)c2)OC(C)C3)c(=O)[nH]1 (stereo not drawn) [Example 35, N-((4,6-Dimethyl-2-oxo-1,2-dihydropyridin-3-yl)methyl)-2-methyl-7-(4-(morpholinomethyl)phenyl)-2,3-dihydrobenzofuran-5-carboxamide]"
21,> 1000,"COc1ccc(-c2cc(C(=O)NCc3c(C)cc(C)[nH]c3=O)cc3c2OCC3)cn1 [Example 36, N-((4,6-Dimethyl-2-oxo-1,2-dihydropyridin-3-yl)methyl)-7-(6-methoxypyridin-3-yl)-2,3-dihydrobenzofuran-5-carboxamide]"
22,> 1000,"Cc1cc(C)c(CNC(=O)c2cc3c(c(-c4ccc(N5CCOCC5)nc4)c2)OCC3)c(=O)[nH]1 [Example 37, N-((4,6-Dimethyl-2-oxo-1,2-dihydropyridin-3-yl)methyl)-7-(6-morpholinopyridin-3-yl)-2,3-dihydrobenzofuran-5-carboxamide]"
23,> 1000,"Cc1cc(C)c(CNC(=O)c2cc3c(c(-c4ccc(N5CCNCC5)nc4)c2)OCC3)c(=O)[nH]1 [Example 38, N-((4,6-Dimethyl-2-oxo-1,2-dihydropyridin-3-yl)methyl)-7-(6-(piperazin-1-yl)pyridin-3-yl)-2,3-dihydrobenzofuran-5-carboxamide]"
24,> 1000,"Cc1cc(C)c(CNC(=O)c2ccc3c(c2)CCC(C)(C)O3)c(=O)[nH]1 [Example 41, N-((4,6-Dimethyl-2-oxo-1,2-dihydropyridin-3-yl)methyl)-2,2-dimethylchroman-6-carboxamide]"
25,> 1000,"Cc1cc(C)c(CNC(=O)c2cc(Br)c3c(c2)CCC(C)(C)O3)c(=O)[nH]1 [Example 42, 8-Bromo-N-((4,6-dimethyl-2-oxo-1,2-dihydropyridin-3-yl)methyl)-2,2-dimethylchroman-6-carboxamide]"
26,> 1000,"COc1ccc(-c2cc(C(=O)NCc3c(C)cc(C)[nH]c3=O)cc3c2OC(C)(C)CC3)cn1 [Example 43, N-((4,6-Dimethyl-2-oxo-1,2-dihydropyridin-3-yl)methyl)-8-(6-methoxypyridin-3-yl)-2,2-dimethylchroman-6-carboxamide]"
27,> 1000,"CC1=CCOc2c(Br)cc(C(=O)NCc3c(C)cc(C)[nH]c3=O)cc2C1 [Example 44, 9-Bromo-N-((4,6-dimethyl-2-oxo-1,2-dihydropyridin-3-yl)methyl)-4-methyl-2,5-dihydrobenzo[b]oxepine-7-carboxamide]"
